Results: the Deep4Chem optical property database
Values belong to the compound of their own block, whether it stands above or below them.

Test: solvent given as SMILES

SMILES: CC1(C)c2ccccc2N(c2ccc(-c3ccc(C#N)cc3)cc2)c2ccccc21
absorption maximum (in Cc1ccccc1): 358 nm

SMILES: c1ccc(-c2nc3ccccc3nc2-c2cc(-c3nc4ccccc4nc3-c3ccccc3)cc(-n3c4ccccc4c4ccccc43)c2)cc1
absorption maximum (in Cc1ccccc1): 340 nm

SMILES: COc1cc(OC)c2cc(C#N)c(=N)oc2c1
absorption maximum (in ClCCl): 372 nm

SMILES: COc1ccc(-c2cc3c4c(c2)CCc2cc(-c5ccc(OC)cc5)cc(c2-4)CC3)cc1
absorption maximum (in ClC(Cl)Cl): 332.1 nm

SMILES: Cc1ccc(C2=C3C=CC4=[N+]3[P-](=O)(=O)n3c2ccc3-c2ccc([nH]2)/C(c2ccc(C)cc2)=c2/cc/c(o2)=C(\c2ccc(C)cc2)c2ccc4[nH]2)cc1
absorption maximum (in ClC(Cl)Cl): 708 nm

SMILES: COc1cccc2cc(C#N)c(=N)oc12
absorption maximum (in ClCCl): 364 nm

SMILES: c1ccc(C2=C3c4ccccc4C4=[N+]3[B-]3(Oc5ccccc54)Oc4ccccc4-c4c5ccccc5c2n43)cc1 (stereo unspecified)
absorption maximum (in ClCCl): 711 nm

SMILES: O=C1c2cc(F)ccc2-c2cnccc21
absorption maximum (in CC#N): 408.61 nm
absorption maximum (in CCCCCC): 408.61 nm

SMILES: CCn1c(-c2ccc(-c3ccc4c(c3)C3(c5ccccc5-c5ccccc53)c3ccccc3-4)cc2)c(-c2ccc3ccccc3c2)c(-c2ccc3ccccc3c2)c1-c1ccc(-c2ccc3c(c2)C2(c4ccccc4-c4ccccc42)c2ccccc2-3)cc1
absorption maximum (in CCOC(C)=O): 326 nm

SMILES: Cc1cc(-c2nc(-c3ccccc3)nc(-c3ccccc3)n2)ccc1N1c2ccccc2C2(c3ccccc3-c3ccccc32)c2ccccc21
absorption maximum (in Cc1ccccc1): 394.19 nm

SMILES: c1ccc(N(c2ccccc2)c2ccc3ccc4c(N(c5ccccc5)c5ccccc5)ccc5ccc2c3c54)cc1
absorption maximum (in Cc1ccccc1): 426 nm
absorption maximum (in ClCCl): 423 nm

SMILES: CCCC1(CCC)c2cc(-c3ccc4c(c3)C(CCC)(CCC)c3cc(C(C)(C)CC)ccc3-4)ccc2-c2ccc(-c3ccc4c(c3)C(CCC)(CCC)c3cc(C(C)(C)CC)ccc3-4)cc21
absorption maximum (in C1CCCCC1): 351 nm

SMILES: CC1=c2c3c4cccc5cccc(c=3c(C)[n+]2[B-](F)(F)n2c(C)c3cc6c(-c7ccccc7)c7c(c(-c8ccccc8)c6cc3c21)-c1cccc2cccc-7c12)c54
absorption maximum (in ClCCl): 658 nm

SMILES: c1ccc2c(c1)-c1ccccc1[Si]21c2ccccc2-c2cc3c(cc21)-c1ccccc1[Si]31c2ccccc2-c2ccccc21
absorption maximum (in ClCCl): 329 nm

SMILES: CCN(CC)c1ccc2c(c1)OC1=[N+](c3ccc(I)cc3)[B-](F)(F)n3c(nc4ccccc43)C1=C2
absorption maximum (in ClCCl): 496 nm

SMILES: CN(C)c1ccc(-c2c(/C=C3/C=Cc4ccccc4N3C)c(=O)c2=O)cc1
absorption maximum (in C1CCCCC1): 358 nm
absorption maximum (in Cc1ccccc1): 362 nm
absorption maximum (in ClCCl): 509 nm

SMILES: Cc1cc(C#N)ccc1N1c2ccccc2C(c2ccccc2)(c2ccccc2)c2ccccc21
absorption maximum (in Cc1ccccc1): 349 nm

SMILES: C1=C(c2ccc(-c3cccs3)s2)CCCC1
absorption maximum (in C1CCOC1): 341 nm
absorption maximum (in CC#N): 342 nm
absorption maximum (in CCCCCC): 341 nm
absorption maximum (in CCO): 344 nm
absorption maximum (in OCCOCCO): 345 nm
absorption maximum (in c1ccncc1): 345 nm

SMILES: c1ccc(-n2c3ccccc3c3cc(-c4cccc(-n5c6ccccc6c6ncccc65)c4)ccc32)cc1
absorption maximum (in ClCCl): 345 nm

SMILES: COc1ccc(-c2nc(/C(C#N)=C/c3ccc(C#N)cc3)sc2-c2ccc(OC)cc2)cc1
absorption maximum (in CC#N): 407 nm

SMILES: CN(C)c1ccc(/C=C/c2nc3ccccc3o2)cc1
absorption maximum (in C1CCCCC1): 380 nm
absorption maximum (in CO): 390 nm

SMILES: N#Cc1cc(-n2c3ccccc3c3ccccc32)c(-n2c3ccccc3c3cc(Br)ccc32)cc1C#N
absorption maximum (in C1CCOC1): 366 nm

SMILES: Brc1ccc(N2c3c(sc4ccccc34)Sc3sc4ccccc4c32)cc1
absorption maximum (in ClCCl): 309 nm

SMILES: N#Cc1c2nc3ccccn3c2nc2c1nc1ccccn12
absorption maximum (in C1CCCCC1): 410 nm
absorption maximum (in C1COCCO1): 425 nm
absorption maximum (in CC#N): 430 nm
absorption maximum (in CN(C)C=O): 435 nm
absorption maximum (in ClC(Cl)Cl): 425 nm

SMILES: F[B-]1(F)OC(c2cc3c4c(c2)CCCN4CCC3)=Cc2cccc[n+]21
absorption maximum (in ClC(Cl)Cl): 450 nm

SMILES: COc1ccc(-c2cc3c(s2)-c2sc(-c4ccc(OC)cc4)cc2P(c2ccccc2)(c2ccccc2)=[O+][B-]3(c2c(C)cc(C)cc2C)c2c(C)cc(C)cc2C)cc1
absorption maximum (in C1CCOC1): 415 nm

SMILES: CCCn1c2cccc3oc4cccc5c4[c+](c32)c2c1cccc2n5CCC
absorption maximum (in CC#N): 557 nm

SMILES: O=C(c1ccc(C(=O)c2ccc(N3c4ccccc4Oc4ccccc43)cc2)cc1)c1ccc(N2c3ccccc3Oc3ccccc32)cc1
absorption maximum (in Cc1ccccc1): 425 nm

SMILES: CCOC(=O)c1c(-c2c(Cl)c3ccccc3oc2=O)nn(-c2cccc(C)c2)c1C(=O)OCC
absorption maximum (in ClCCl): 321 nm

SMILES: CN(C)c1ccc2c(c1)[Si](C)(C)C1=CC(=[N+](C)C)C=CC1=C2C#Cc1ccccc1
absorption maximum (in CO): 712 nm
absorption maximum (in O): 712 nm

SMILES: Cc1c(C)c(N2c3ccccc3Oc3ccccc32)c(C)c(C)c1B(c1c(C)c(C)c(N2c3ccccc3Oc3ccccc32)c(C)c1C)c1c(C)c(C)c(N2c3ccccc3Oc3ccccc32)c(C)c1C
absorption maximum (in CC(C)(C)c1ccc(-n2c3ccc([Si](c4ccccc4)(c4ccccc4)c4ccccc4)cc3c3cc([Si](c4ccccc4)(c4ccccc4)c4ccccc4)ccc32)cc1): 398 nm

SMILES: CCCCC(CC)CN1C(=O)c2cc(Oc3ccc(OC)cc3)c3c4c(Oc5ccc(C(C)(C)C)cc5)cc5c6c(cc(Oc7ccc(C(C)(C)C)cc7)c(c7c(Oc8ccc(OC)cc8)cc(c2c37)C1=O)c64)C(=O)N(c1c(C(C)C)cccc1C(C)C)C5=O (stereo unspecified)
absorption maximum (in Cc1ccccc1): 581 nm

SMILES: COc1ccc(C2=[N+]3C(=Nc4c(-c5ccc6ccccc6c5)cc(-c5ccc(OC)cc5)n4[B-]3(F)F)C(c3ccc4ccccc4c3)=C2)cc1
absorption maximum (in ClCCl): 704 nm

SMILES: O[Si](c1c2ccccc2cc2ccccc12)(c1c2ccccc2cc2ccccc12)c1c2ccccc2cc2ccccc12
absorption maximum (in ClC(Cl)Cl): 402 nm

SMILES: c1ccc(N(c2ccccc2)c2ccc(-c3ccc(-c4ccc(N(c5ccccc5)c5ccccc5)cc4)c4nsnc34)cc2)cc1
absorption maximum (in ClCCl): 459 nm

SMILES: N#CC(C#N)=C(c1cccc(N(c2ccccc2)c2ccccc2)c1)c1cccc(N(c2ccccc2)c2ccccc2)c1
absorption maximum (in C1CCCCC1): 367.69 nm
absorption maximum (in CC(C)=O): 371.43 nm
absorption maximum (in CN(C)C=O): 374.84 nm
absorption maximum (in Cc1ccccc1): 374.84 nm
absorption maximum (in ClC(Cl)Cl): 382.14 nm

SMILES: COCCC1=Cc2nc1ccc1[nH]c(c3nc(ccc4[nH]c2cc4CCOC)C(CCOC)=C3)c(CN(C)C)c1CCOC
absorption maximum (in Cc1ccccc1): 643 nm

SMILES: O=[N+]([O-])c1ccc(NCCNCc2c3ccccc3cc3ccccc23)c([N+](=O)[O-])c1
absorption maximum (in C1CCCCC1): 368 nm
absorption maximum (in C1CCOC1): 349 nm
absorption maximum (in CC#N): 364 nm
absorption maximum (in CC(C)=O): 364 nm
absorption maximum (in CCO): 364 nm
absorption maximum (in CN(C)C=O): 363 nm
absorption maximum (in CO): 348 nm
absorption maximum (in ClC(Cl)Cl): 350 nm

SMILES: C=C[Si](c1c2ccccc2cc2ccccc12)(c1c2ccccc2cc2ccccc12)c1c2ccccc2cc2ccccc12
absorption maximum (in ClC(Cl)Cl): 404 nm

More lines, now with the values ahead:

absorption maximum (in CO): 397 nm
SMILES: c1ccc(N(c2ccccc2)c2ccc(-c3ncc(-c4ccncc4)s3)cc2)cc1

absorption maximum (in ClCCl): 495 nm
SMILES: CC1=C(c2ccccc2)Oc2cc3nc4ccccc4nc3c3cccc1c23

absorption maximum (in CC#N): 451 nm
SMILES: C[C@]12SC(=O)C=C1c1nc(-c3ccc(Cl)cc3)[nH]c1C1=CC(=O)S[C@@]12C

absorption maximum (in C1CCCCC1): 336 nm
absorption maximum (in C1COCCO1): 337 nm
absorption maximum (in CC#N): 334 nm
absorption maximum (in CC(C)(C)O): 339 nm
absorption maximum (in CC(C)O): 339 nm
absorption maximum (in CCCCCC): 334 nm
absorption maximum (in CCCCO): 341 nm
absorption maximum (in CCOC(C)=O): 335 nm
absorption maximum (in CN(C)C=O): 340 nm
absorption maximum (in CO): 339 nm
absorption maximum (in ClCCl): 339 nm
absorption maximum (in O): 340 nm
SMILES: O=C1Nc2ccccc2/C1=C/C(=O)c1ccc(Cl)cc1Cl

absorption maximum (in CC#N): 559 nm
SMILES: CC1=C2C3=C(CCc4ccccc43)C(C)=[N+]2[B-](F)(F)n2c(C)c3c(c21)-c1ccccc1CC3

absorption maximum (in ClCCl): 520 nm
SMILES: Clc1nnc(O/N=C/c2ccc(N(c3ccc(Br)cc3)c3ccc(Br)cc3)cc2)nn1

absorption maximum (in CC#N): 344 nm
SMILES: c1ccc2c(c1)nc1ccccn12

absorption maximum (in CCO): 591 nm
absorption maximum (in ClC(Cl)Cl): 602 nm
absorption maximum (in O): 594 nm
SMILES: CCN(CC)c1ccc2c(c1)oc(=O)c1c(-c3ccccc3C(=O)O)c3ccc(=[N+](CC)CC)cc-3oc12

absorption maximum (in ClC(Cl)Cl): 582 nm
SMILES: CCCCCCCCn1c(=O)c2cc3c(C#Cc4ccc(N(c5ccccc5)c5ccccc5)cc4)c4cc5c(=O)n(CCCCCCCC)c(=O)c5cc4c(C#Cc4ccc(N(c5ccccc5)c5ccccc5)cc4)c3cc2c1=O

absorption maximum (in CC#N): 369 nm
absorption maximum (in CCCCCCC): 357 nm
absorption maximum (in CO): 367 nm
absorption maximum (in O): 378 nm
SMILES: O=[N+]([O-])c1ccc(/C=C/c2cn(S(=O)(=O)c3ccccc3)c3ccccc23)cc1

absorption maximum (in CC#N): 382 nm
absorption maximum (in CCCCO): 377 nm
absorption maximum (in CCCO): 376 nm
absorption maximum (in CCO): 375 nm
absorption maximum (in CO): 373 nm
SMILES: CN1C(C(=O)Nc2ccccn2)=C([O-])c2sccc2S1(=O)=O

absorption maximum (in CCO): 369 nm
SMILES: CCN(CC)c1cc(F)c(C(=O)c2cc(F)c(N(CC)CC)cc2F)cc1F

absorption maximum (in ClCCl): 396 nm
SMILES: Clc1cc(Cl)c(B2c3ccccc3Nc3ccccc32)c(Cl)c1

absorption maximum (in CO): 485 nm
SMILES: CCN(CC)c1ccc(C=Cc2nc3nc4ccccc4nc3s2)c(OC)c1

absorption maximum (in CCCCCC): 592 nm
SMILES: F[B-]1(F)n2c(ccc2-c2ccccc2)C(C(F)(F)F)=C2C=CC(c3ccccc3)=[N+]21

absorption maximum (in ClCCl): 642 nm
SMILES: CC(C)[Si](C#Cc1c2cc3ccccc3cc2c(C#C[Si](C)(C)C)c2cc3ccccc3cc12)(C(C)C)C(C)C

absorption maximum (in ClC(Cl)Cl): 609 nm
SMILES: CCCCCCCCN1C(=O)c2ccc3c4c(-c5ccc6c(c5)c5ccccc5n6-c5ccccc5)cc5c6c(ccc(c7c(-c8ccc9c(c8)c8ccccc8n9-c8ccccc8)cc(c2c37)C1=O)c64)C(=O)N(CCCCCCCC)C5=O

absorption maximum (in ClCCl): 416 nm
SMILES: CC(C)(C)c1cc(C#Cc2ccc3c(C#Cc4cc(C(C)(C)C)cc(C(C)(C)C)c4)cc4c5cc(C#Cc6cc(C(C)(C)C)cc(C(C)(C)C)c6)ccc5c(C#Cc5cc(C(C)(C)C)cc(C(C)(C)C)c5)cc4c3c2)cc(C(C)(C)C)c1

absorption maximum (in CC1CCCCC1): 321 nm
absorption maximum (in CC#N): 305 nm
absorption maximum (in CO): 305 nm
SMILES: COC(=O)C(NC(=O)OC(C)(C)C)c1ccc2oc(-c3cccc(Oc4ccccc4)c3)nc2c1 (stereo unspecified)
